In this assay the target is T1, hTRPV1 (Homo sapiens, UniProt Q8NER1).
T1 construct: expressed in transfected cells; host or cells: HEK293
As to the kind of experiment: Human TRPV1 (hTRPV1) functional assay, FLIPR intracellular Ca2+, capsaicin challenge. The format is cell-based. To be noted: HEK293 cells expressing hTRPV1, capsaicin 0.030 μM challenge; for inhibition at 0.5 µM: test concentration of 0.5 μm, read-out: percent inhibition (symbol a); for IC50: derived from a variety of test concentrations, read-out: IC50 value (symbol c); for inhibition at 0.2 µM: test concentration of 0.2 μm, read-out: percent inhibition (symbol b). Here is the method:
The functional activity of the test compounds was determined by measuring changes in intracellular calcium concentration using a Ca^++-sensitive fluorescent dye and FLIPR™ technology. Increases in Ca^++ concentration were readily detected upon challenge with capsaicin.
HEK293 cells expressing hTRPV1 were grown on poly-D-lysine coated 384 well black-walled plates (BD 354663) and 1 day later loaded with Calcium 3 Dye for 35 min at 37° C., 5% CO2 and then for 25 min at room temperature, and subsequently tested for agonist-induced increases in intracellular Ca^2+ levels using FLIPR™ technology. Cells were challenged with test compounds (at varying concentrations) and intracellular Ca^2+ was measured for 5 min prior to the addition of capsaicin to all wells to achieve a final concentration of 0.030 μM eliciting ˜80% maximal response.
EC50 or IC50 values were determined from concentration-response studies, which were generated using the average of quadruplicate wells for each data point. The symbol “a” represents percent inhibition obtained at a test concentration of 0.5 μm; the symbol “b” represents percent inhibition obtained at a test concentration of 0.2 μm; the symbol “c” represents an IC50 value (nM) derived from a variety of test concentrations. The term “NA” means that the result is not applicable for a particular compound.

Structures are written as SMILES.

T1 sequence (Q8NER1 whole entry): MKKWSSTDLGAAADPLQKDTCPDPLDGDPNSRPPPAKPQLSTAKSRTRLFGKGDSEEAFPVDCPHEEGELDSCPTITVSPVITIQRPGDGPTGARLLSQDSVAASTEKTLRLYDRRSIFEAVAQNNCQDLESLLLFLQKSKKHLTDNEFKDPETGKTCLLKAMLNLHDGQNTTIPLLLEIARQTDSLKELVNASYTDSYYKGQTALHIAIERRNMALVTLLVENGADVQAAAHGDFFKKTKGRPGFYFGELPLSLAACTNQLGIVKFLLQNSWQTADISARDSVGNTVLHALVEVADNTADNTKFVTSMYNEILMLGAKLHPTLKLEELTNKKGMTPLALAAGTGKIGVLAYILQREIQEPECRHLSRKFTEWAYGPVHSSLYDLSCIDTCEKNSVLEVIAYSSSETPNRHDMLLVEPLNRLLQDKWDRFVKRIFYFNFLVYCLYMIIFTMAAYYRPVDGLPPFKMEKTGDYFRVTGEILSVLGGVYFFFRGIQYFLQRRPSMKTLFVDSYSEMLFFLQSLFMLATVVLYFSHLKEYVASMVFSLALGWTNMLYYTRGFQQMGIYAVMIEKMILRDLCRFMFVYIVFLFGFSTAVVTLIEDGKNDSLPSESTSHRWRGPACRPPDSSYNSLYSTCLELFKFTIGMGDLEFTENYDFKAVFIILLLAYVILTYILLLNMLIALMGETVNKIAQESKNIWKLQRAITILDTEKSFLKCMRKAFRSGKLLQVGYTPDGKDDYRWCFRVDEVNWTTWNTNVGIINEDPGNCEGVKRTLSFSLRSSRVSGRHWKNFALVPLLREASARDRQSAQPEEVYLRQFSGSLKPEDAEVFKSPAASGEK

With `NS(=O)(=O)c1ccccc1-c1ccc2[nH]c(COc3ccncc3)nc2c1` [Cpd 38, 2-[2-(pyridin-4-yloxymethyl)-1H-benzoimidazol-5-yl]-benzenesulfonamide], the inhibition at 0.5 µM worked out at 13%.
The same measure, in the same setting: as for `NS(=O)(=O)c1ccccc1-c1ccc2[nH]c(COc3ccc(C(F)(F)F)cn3)nc2c1` [Cpd 39, 2-[2-(5-trifluoromethyl-pyridin-2-yloxymethyl)-1H-benzoimidazol-5-yl]-benzenesulfonamide], the figure is 5%.
For the compound `Cn1c(COc2ccc(C(F)(F)F)cc2)nc2cc(-c3ccccc3S(N)(=O)=O)ccc21` [Cpd 40, 2-[1-methyl-2-(4-trifluoromethyl-phenoxymethyl)-1H-benzoimidazol-5-yl]-benzenesulfonamide], the 50% inhibitory concentration (IC50) turned out to be 8.6 nM and the inhibition at 0.5 µM was determined as 100%.
In the case of `NS(=O)(=O)c1ccccc1-c1ccc2[nH]c(CSc3ccc(C(F)(F)F)cc3)nc2c1` [Cpd 41, 2-[2-(4-trifluoromethyl-phenylsulfanylmethyl)-1H-benzoimidazol-5-yl]-benzenesulfonamide], the IC50 was determined as 4.9 nM and the inhibition at 0.2 µM turned out to be 98%.
The matching figures for `NS(=O)(=O)c1ccccc1-c1ccc2[nH]c(CSc3ccc(Cl)cc3)nc2c1` [Cpd 42, 2-[2-(4-chloro-phenylsulfanylmethyl)-1H-benzoimidazol-5-yl]-benzenesulfonamide]: 75 nM and 93%.
In the case of `NS(=O)(=O)c1ccccc1-c1ccc2[nH]c(CSc3ccc(OC(F)(F)F)cc3)nc2c1` [Cpd 43, 2-[2-(4-trifluoromethoxy-phenylsulfanylmethyl)-1H-benzoimidazol-5-yl]-benzenesulfonamide], the half-inhibitory concentration (IC50) turned out to be 123 nM and the inhibition at 0.2 µM was determined as 87%.
In the case of `NS(=O)(=O)c1ccccc1-c1ccc2[nH]c(CS(=O)(=O)c3ccc(C(F)(F)F)cc3)nc2c1` [Cpd 44, 2-[2-(4-trifluoromethyl-benzenesulfonylmethyl)-1H-benzoimidazol-5-yl]-benzenesulfonamide], the inhibition at 0.2 µM is 12%.
On the same count and under the same terms, as for `NS(=O)(=O)c1ccccc1-c1ccc2[nH]c(CS(=O)(=O)c3ccc(Cl)cc3)nc2c1` [Cpd 45, 2-[2-(4-chloro-benzenesulfonylmethyl)-1H-benzoimidazol-5-yl]-benzenesulfonamide], the figure is 2%; as for `NS(=O)(=O)c1ccccc1-c1ccc2[nH]c(CS(=O)(=O)c3ccc(OC(F)(F)F)cc3)nc2c1` [Cpd 46, 2-[2-(4-trifluoromethoxy-benzenesulfonylmethyl)-1H-benzoimidazol-5-yl]-benzenesulfonamide], 5%; as for `NS(=O)(=O)c1ccccc1-c1ccc2[nH]c(CNc3ccc(C(F)(F)F)cc3)nc2c1` [Cpd 47, 2-{2-[(4-trifluoromethyl-phenylamino)-methyl]-1H-benzoimidazol-5-yl}-benzenesulfonamide], 46%.
In the case of `NS(=O)(=O)c1ccccc1-c1ccc2[nH]c(CNc3ccc(OC(F)(F)F)cc3)nc2c1` [Cpd 48, 2-{2-[(4-trifluoromethoxy-phenylamino)-methyl]-1H-benzoimidazol-5-yl}-benzenesulfonamide], the inhibition at 0.2 µM came to 41%.
In the case of `CC(=O)c1ccccc1-c1ccc2[nH]c(COc3ccc(C(F)(F)F)cc3)nc2c1` [Cpd 49, 1-{2-[2-(4-trifluoromethyl-phenoxymethyl)-1H-benzoimidazol-5-yl]-phenyl}-ethanone], the half-maximal inhibitory concentration (IC50) was 106 nM and the inhibition at 0.2 µM was 89%.
As for `CC(C)(O)c1ccccc1-c1ccc2[nH]c(COc3ccccc3)nc2c1` [Cpd 50, 2-[2-(2-phenoxymethyl-1H-benzoimidazol-5-yl)-phenyl]-propan-2-ol], the concentration for half-maximal inhibition (IC50) came out at 91 nM and the inhibition at 0.2 µM was 81%.
Turning to `CNS(=O)(=O)c1ccccc1-c1ccc2[nH]c(COc3ccc(C(C)C)cc3)nc2c1` [Cpd 51, 2-[2-(4-isopropyl-phenoxymethyl)-1H-benzoimidazol-5-yl]-N-methyl-benzenesulfonamide], the IC50 came out at 7.8 nM and the inhibition at 0.2 µM worked out at 100%.
Consider `CNS(=O)(=O)c1ccccc1-c1ccc2[nH]c(COc3cccc(C(F)(F)F)c3)nc2c1` [Cpd 52, N-methyl-2-[2-(3-trifluoromethyl-phenoxymethyl)-1H-benzoimidazol-5-yl]-benzenesulfonamide], for which the concentration for half-maximal inhibition (IC50) was 35 nM and the inhibition at 0.2 µM amounted to 99%.
For the compound `CS(=O)(=O)c1ccccc1-c1ccc2[nH]c(COc3ccccc3)nc2c1` [Cpd 53, 5-(2-methanesulfonyl-phenyl)-2-phenoxymethyl-1H-benzoimidazole], the inhibition at 0.2 µM is 17%.
On to `CS(=O)(=O)c1ccccc1-c1ccc2[nH]c(COc3ccccc3F)nc2c1` [Cpd 54, 2-(2-fluoro-phenoxymethyl)-5-(2-methanesulfonyl-phenyl)-1H-benzoimidazole], for which the inhibition at 0.2 µM is 4%.
Take `CS(=O)(=O)c1ccccc1-c1ccc2[nH]c(COc3cccc(F)c3)nc2c1` [Cpd 55, 2-(3-fluoro-phenoxymethyl)-5-(2-methanesulfonyl-phenyl)-1H-benzoimidazole]: the inhibition at 0.2 µM is 20%.
On the same count and under the same terms, as for `CS(=O)(=O)c1ccccc1-c1ccc2[nH]c(COc3ccc(F)cc3)nc2c1` [Cpd 56, 2-(4-fluoro-phenoxymethyl)-5-(2-methanesulfonyl-phenyl)-1H-benzoimidazole], the figure is 31%; as for `CS(=O)(=O)c1ccccc1-c1ccc2[nH]c(COc3ccccc3Cl)nc2c1` [Cpd 57, 2-(2-chloro-phenoxymethyl)-5-(2-methanesulfonyl-phenyl)-1H-benzoimidazole], 14%.
Still for that read-out and setting: as for `CS(=O)(=O)c1ccccc1-c1ccc2[nH]c(COc3cccc(Cl)c3)nc2c1` [Cpd 58, 2-(3-chloro-phenoxymethyl)-5-(2-methanesulfonyl-phenyl)-1H-benzoimidazole], the figure is 22%.
With `CS(=O)(=O)c1ccccc1-c1ccc2[nH]c(COc3ccc(Cl)cc3)nc2c1` [Cpd 59, 2-(4-chloro-phenoxymethyl)-5-(2-methanesulfonyl-phenyl)-1H-benzoimidazole], the IC50 worked out at 18 nM and the inhibition at 0.2 µM came to 87%.
As for `CS(=O)(=O)c1ccccc1-c1ccc2[nH]c(COc3cccc(Br)c3)nc2c1` [Cpd 60, 2-(3-bromo-phenoxymethyl)-5-(2-methanesulfonyl-phenyl)-1H-benzoimidazole], the inhibition at 0.2 µM stood at 49%.
For `CS(=O)(=O)c1ccccc1-c1ccc2[nH]c(COc3ccc(Br)cc3)nc2c1` [Cpd 61, 2-(4-bromo-phenoxymethyl)-5-(2-methanesulfonyl-phenyl)-1H-benzoimidazole], the half-maximal inhibitory concentration (IC50) amounted to 66 nM and the inhibition at 0.2 µM is 77%.
Take `CS(=O)(=O)c1ccccc1-c1ccc2[nH]c(COc3ccc(F)cc3F)nc2c1` [Cpd 62, 2-(2,4-difluoro-phenoxymethyl)-5-(2-methanesulfonyl-phenyl)-1H-benzoimidazole]: the inhibition at 0.2 µM came out at 24%.
Still for that read-out and setting: as for `CS(=O)(=O)c1ccccc1-c1ccc2[nH]c(COc3ccc(F)c(F)c3)nc2c1` [Cpd 63, 2-(3,4-difluoro-phenoxymethyl)-5-(2-methanesulfonyl-phenyl)-1H-benzoimidazole], the figure is 37%; as for `CS(=O)(=O)c1ccccc1-c1ccc2[nH]c(COc3ccc(Cl)cc3Cl)nc2c1` [Cpd 64, 2-(2,4-dichloro-phenoxymethyl)-5-(2-methanesulfonyl-phenyl)-1H-benzoimidazole], 58%.
Consider `CS(=O)(=O)c1ccccc1-c1ccc2[nH]c(COc3ccc(Cl)c(Cl)c3)nc2c1` [Cpd 65, 2-(3,4-dichloro-phenoxymethyl)-5-(2-methanesulfonyl-phenyl)-1H-benzoimidazole], for which the half-inhibitory concentration (IC50) came out at 58 nM and the inhibition at 0.2 µM stood at 91%.
Taken in the same sequence, the figures for `CS(=O)(=O)c1ccccc1-c1ccc2[nH]c(COc3ccc(Cl)cc3F)nc2c1` [Cpd 66, 2-(4-chloro-2-fluoro-phenoxymethyl)-5-(2-methanesulfonyl-phenyl)-1H-benzoimidazole] were 81 nM and 85%.
Consider `CS(=O)(=O)c1ccccc1-c1ccc2[nH]c(COc3ccc(F)c(Cl)c3)nc2c1` [Cpd 67, 2-(3-chloro-4-fluoro-phenoxymethyl)-5-(2-methanesulfonyl-phenyl)-1H-benzoimidazole], for which the inhibition at 0.2 µM was 70%.
Still for that read-out and setting: as for `CS(=O)(=O)c1ccccc1-c1ccc2[nH]c(COc3cc(F)c(F)c(F)c3)nc2c1` [Cpd 68, 5-(2-methanesulfonyl-phenyl)-2-(3,4,5-trifluoro-phenoxymethyl)-1H-benzoimidazole], the figure is 59%; as for `CS(=O)(=O)c1ccccc1-c1ccc2[nH]c(COc3cc(F)c(F)cc3F)nc2c1` [Cpd 69, 5-(2-methanesulfonyl-phenyl)-2-(2,4,5-trifluoro-phenoxymethyl)-1H-benzoimidazole], 21%.
In the case of `CS(=O)(=O)c1ccccc1-c1ccc2[nH]c(COc3ccc(F)c(F)c3F)nc2c1` [Cpd 70, 5-(2-methanesulfonyl-phenyl)-2-(2,3,4-trifluoro-phenoxymethyl)-1H-benzoimidazole], the inhibition at 0.2 µM came to 33%.

The values above are taken from patent US7612211B2, “Benzimidazole TRPV1 inhibitors” (Janssen Pharmaceutica N.V., priority 2006, dated 2009).
